Data on 2 compounds can be found in patent publication US20190008790A1, “A METHOD FOR THE PREPARATION OF A DELIVERY DRUG DELIVERY SYSTEM AND A COMPOSITION THEREFOR” (Element Six (UK) Limited, priority 2015, published 2019).

Assay [1] relates to Staphylococcus aureus subsp. aureus MRSA252. Put plainly: Minimum Bactericidal Concentration Test (MBC), re-growth as percentage of positive control. The assay is classed as cell-based. As to conditions: ciprofloxacin concentration, dilutions of 0.5 mg/ml stock, re-growth vs positive control, read-out: concentration at which activity against MRSA252 was maintained (MBC test). As for the experimental part: In this example, the efficacy of the product of Example 7 was tested against Comparative Example 7 using a Minimum Bactericidal Concentration Test (MBC) to compare the inhibitory.
A sample of the spray dried powder obtained from Example 7 was dispersed into deionised water to give a ciprofloxacin concentration of 0.5 mg/ml (“Solution A”). A dispersion having the same concentration of ciprofloxacin was prepared by dissolving ciprofloxacin into dimethyl sulfoxide (“Solution B”). A third sample (“Solution C”) consisting of a water saturated ciprofloxacin solution was prepared by dispersing powder obtained from Comparative Example 7.
All three solutions were diluted to various concentrations and were subject to Minimum Bactericidal Concentration Test (MBC) to compare the inhibitory activity via re-growth of Staphylococcus aureus subsp. aureus MRSA252 as percentage of positive control. […] Solution B (DMSO/ciprofloxacin organic solution) maintained activity against MRSA252 at 62.5 mg/L (see FIG. 4(b)).

In assay [2] the test system is Fusobacterium nucleatum. Kind of assay: IC50 test (half maximal inhibitory concentration) on gram-negative bacterium. The assay is classed as cell-based. The following applies: Triclosan ppm, percentage growth compared to positive control, 800 ppm stock. An excerpt:
The effectiveness of the active pharmaceutical ingredient may be measured by means of its “half maximal inhibitory concentration”, also known as the “IC50” value.
The IC50 of a substance is a measure of the effectiveness of that substance in inhibiting a specific biological or biochemical function. The IC50 indicates how much of a particular drug or other substance (inhibitor) is needed to inhibit a given biological process (or component of a process, i.e. an enzyme, cell, cell receptor or microorganism) by half. It is commonly used as a measure of antagonist drug potency in pharmacological research. The IC50 of a drug can be determined by constructing a dose-response curve and examining the effect of different concentrations of antagonist on reversing agonist activity. IC50 values can be calculated for a given antagonist by determining the concentration needed to inhibit half of the maximum biological response of the agonist.
A sample of the Triclosan™/nano-diamond powder produced according to Example 5 was dispersed into deionized water to form an 800 ppm Triclosan™ dispersion (Solution 1).
Triclosan™ was dissolved into an ethanol/water mixture (50/50 in volume) to form an 800 ppm Triclosan™ solution (Solution 2). An IC50 test was conducted with Solution 2 on gram-negative bacteria (Fusobacterium nucleatum). […]

Converted amounts (≈) assume the structure as drawn.

On to `O=C(O)c1cn(C2CC2)c2cc(N3CCNCC3)c(F)cc2c1=O` [Solution B, ciprofloxacin], for which, in assay [1], the MBC is 62.5 µg/mL (≈ 189 µM).

On to `Oc1cc(Cl)ccc1Oc1ccc(Cl)cc1Cl` [Solution 2, 5-chloro-2-(2,4-dichloro-phenoxy)-phenol], for which the IC50 entry in assay [2] is given as “around 56 ppm”; in assay [2] (listed as Triclosan™ in a 50:50 by volume water/ethanol solution), approximately 56 ppm.
